Test results: patent US20250333397A1 (REMIX THERAPEUTICS INC., priority 2021, published 2025)
Where two headings read alike, the source gives them in different places.

Experiments:
Assay type in all cases: cell-based, human
Target C mRNA = assay: RT-qPCR splicing assay panel, Target C canonical junction (CJ) mRNA; conditions: canonical junction (CJ) mRNA, RT-qPCR panel, Table 4A, read-out: Target C, decrease in CJ mRNA levels, IC50
Summary of the method: (§1)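 Cells: A673 (DMEM/10% FBS, plated 24 h before) or K562 (IMDM/10% FBS). Dosing: 11-pt 3-fold series, 10 uM top final, ≤0.25% DMSO, 24 h, 37 °C/5% CO2. Readout: RT-qPCR of CJ and AJ junctions, housekeeper-normalized, RQ = 2^(-ΔΔCt) vs DMSO.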

MYB mRNA = assay: RT-qPCR splicing assay, MYB canonical (CJ) and alternative (AJ) junction mRNA; conditions: for AC50: read-out: MYB AJ (AC50, increase in AJ mRNA)
Summary of the method: as §1

HTT mRNA = assay: RT-qPCR splicing assay, HTT canonical (CJ) and alternative (AJ) junction mRNA; conditions: for AC50: read-out: HTT AJ (AC50, increase in AJ mRNA)
Summary of the method: as §1

SMN2 mRNA = assay: RT-qPCR splicing assay panel, SMN2 canonical junction (CJ) mRNA; conditions: canonical junction (CJ) mRNA, RT-qPCR panel, Table 4A, read-out: SMN2, decrease in CJ mRNA levels, IC50
Summary of the method: as §1

[1] = Homo sapiens, 24 h, Table 3A, A673 or K562 cells, 24 h treatment
[2] = Homo sapiens, 24 h, Table 3A, A673 or K562 cells, 24 h treatment, read-out: MYB CJ (IC50, decrease in CJ mRNA)
[3] = Homo sapiens, canonical junction (CJ) mRNA, RT-qPCR panel, Table 4A, read-out: MYB, decrease in CJ mRNA levels, IC50
[4] = Homo sapiens, 24 h, Table 3A, A673 or K562 cells, 24 h treatment, read-out: HTT CJ (IC50, decrease in CJ mRNA)
[5] = Homo sapiens, canonical junction (CJ) mRNA, RT-qPCR panel, Table 4A, read-out: HTT, decrease in CJ mRNA levels, IC50
[6] = Table 3A, A673 or K562 cells, 24 h treatment

Row | IC50 (Target C mRNA; Homo sapiens) [µM] | IC50 (MYB mRNA; [2]) [µM] | IC50 (MYB mRNA; [3]) [µM] | IC50 (HTT mRNA; [4]) [µM] | IC50 (HTT mRNA; [5]) [µM] | IC50 (SMN2 mRNA; Homo sapiens) [µM] | IC50 (Target C mRNA) [µM] | IC50 (MYB mRNA; Table 3A, A673 or K562 cells, 24 h treatment, read-out: MYB CJ (IC50, decrease in CJ mRNA)) [µM] | IC50 (MYB mRNA; canonical junction (CJ) mRNA, RT-qPCR panel, Table 4A, read-out: MYB, decrease in CJ mRNA levels, IC50) [µM] | IC50 (HTT mRNA; Table 3A, A673 or K562 cells, 24 h treatment, read-out: HTT CJ (IC50, decrease in CJ mRNA)) [µM] | IC50 (HTT mRNA; canonical junction (CJ) mRNA, RT-qPCR panel, Table 4A, read-out: HTT, decrease in CJ mRNA levels, IC50) [µM] | IC50 (SMN2 mRNA) [µM] | SMILES | AC50 (MYB mRNA; [1]) [µM] | AC50 (HTT mRNA; [1]) [µM] | AC50 (MYB mRNA; [6]) [µM] | AC50 (HTT mRNA; [6]) [µM]
1 | < 0.1 | < 0.1 | < 0.1 | < 0.1 | < 0.1 | < 0.1 |  |  |  |  |  |  | CNc1cc(-c2ccc(-c3ccc(N4CC[C@@H](NC(C)(C)C)C4)nn3)c(O)c2)ncn1 [Compound 437, 2-{6-[(3R)-3-(tert-butylamino)pyrrolidin-1-yl]pyridazin-3-yl}-5-[6-(methylamino)pyrimidin-4-yl]phenol] | < 0.1 | < 0.1 |  | 
2 | 0.1 to 1 | 0.1 to 1 | 0.1 to 1 | < 0.1 | < 0.1 | < 0.1 |  |  |  |  |  |  | COc1cc(-c2ccc(-c3ccc(N4CC[C@@H](CNC5CCC5)C4)nn3)c(O)c2)cnn1 [Compound 440, 2-{6-[(3S)-3-[(cyclobutylamino)methyl]pyrrolidin-1-yl]pyridazin-3-yl}-5-(6-methoxypyridazin-4-yl)phenol] | 0.1 to 1 | 0.1 to 1 |  | 
3 | > 10 | > 10 | > 10 | > 10 | > 10 | 1 to 10 |  |  |  |  |  |  | CCc1ncc(-c2cc(O)c(-c3ccc(N4CCC(NC5CCC5)C4)nn3)cc2F)s1 (stereo not shown) [Compound 442] | > 10 | 1 to 10 |  | 
4 | > 10 | > 10 | > 10 | 1 to 10 | 1 to 10 | 1 to 10 |  |  |  |  |  |  | Oc1cc(-c2cnn3c2CCC3)c(F)cc1-c1ccc(N2CCC(NC3CCC3)C2)nn1 (stereo not shown) [Compound 443] | > 10 | 1 to 10 |  | 
5 | > 10 | > 10 | > 10 | > 10 | > 10 | 1 to 10 |  |  |  |  |  |  | Oc1cc(-c2cnc(C3CC3)s2)c(F)cc1-c1ccc(N2CCC(NC3CCC3)C2)nn1 (stereo not shown) [Compound 444] | > 10 | > 10 |  | 
6 | > 10 | > 10 | > 10 | > 10 | > 10 | > 10 |  |  |  |  |  |  | CC(=O)c1cc(-c2ccc(-c3ccc(N4CCC(NC5CCC5)C4)nn3)c(O)c2)cnn1 (stereo not shown) [Compound 445] | > 10 | > 10 |  | 
7 |  |  |  |  |  |  | < 0.1 | < 0.1 | < 0.1 | < 0.1 | < 0.1 | < 0.1 | CN([C@@H]1CCN(c2ccc(-c3ccc(-c4cn[nH]c4)cc3O)nn2)C1)C(C)(C)C [Compound 446] |  |  | < 0.1 | < 0.1
8 | 0.1 to 1 | 0.1 to 1 | 0.1 to 1 | < 0.1 | < 0.1 | < 0.1 |  |  |  |  |  |  | COc1cc(-c2ccc(-c3ccc(N4CCC(N[C@H]5C[C@H](O)C5)C4)nn3)c(O)c2)cnn1 (stereo partly shown) [Compound 447] | 0.1 to 1 | < 0.1 |  | 
9 | 0.1 to 1 | 0.1 to 1 | 0.1 to 1 | 0.1 to 1 | 0.1 to 1 | < 0.1 |  |  |  |  |  |  | COc1cc(-c2ccc(-c3ccc(N4CCC(N[C@H]5C[C@H](OC)C5)C4)nn3)c(O)c2)cnn1 (stereo partly shown) [Compound 448] | 0.1 to 1 | 0.1 to 1 |  | 
10 | 1 to 10 | 0.1 to 1 | 0.1 to 1 | 0.1 to 1 | 0.1 to 1 | < 0.1 |  |  |  |  |  |  | COc1cc(-c2ccc(-c3cc(C)c(N4CC[C@H](NC5CCC5)C4)nn3)c(O)c2)cnn1 [Compound 449, 2-{6-[(3S)-3-(cyclobutylamino)pyrrolidin-1-yl]-5-methylpyridazin-3-yl}-5-(6-methoxypyridazin-4-yl)phenol] | 0.1 to 1 | 0.1 to 1 |  | 
11 | 1 to 10 | 1 to 10 | 1 to 10 | 1 to 10 | 1 to 10 | 1 to 10 |  |  |  |  |  |  | COc1cc(-c2ccc(-c3nnc(N4CC[C@H](NC5CCC5)C4)cc3C)c(O)c2)cnn1 [Compound 450, (S)-2-(6-(3-(cyclobutylamino)pyrrolidin-1-yl)-4-methylpyridazin-3-yl)-5-(6-methoxypyridazin-4-yl)phenol] | 1 to 10 | 1 to 10 |  | 
